Results as given in patent US20250152585A1, “PHARMACEUTICAL COMPOUND” (Duke Street Bio Limited, priority 2022, published 2025).
pIC50, pKd: −log10 of the molar value. Where two headings read alike, the source gives them in different places.

Legend:
[1] = biological target: T1, N-terminally FLAG-tagged PARP2 (amino acids 1-583) (Homo sapiens, UniProt Q9UGN5); test: PARP2 probe displacement HTRF assay; format: binding; conditions: binned Kd, PARP2 probe displacement HTRF
T1 construct: N-terminally FLAG-tagged PARP2 (amino acids 1-583)
Description: Data analysis was performed identical as for PARP1.

[2] = biological target: T2, full length N-terminally FLAG-tagged PARP1 (Homo sapiens, UniProt P09874); test: PARP1 probe displacement HTRF assay; conditions: for pKd: binned Kd, PARP1 probe displacement HTRF; for Selectivity: PARP1 over PARP2, ratio Kd (PARP2)/Kd (PARP1), probe displacement HTRF
[3] = biological target: T2, full length N-terminally FLAG-tagged PARP1; test: PARP1 biochemical DELFIA assay (auto-PARylation); parameters: recombinant full length human N-terminally FLAG-tagged PARP1; conditions: binned IC50, PARP1 biochemical DELFIA assay

T2 sequence (P09874 whole entry): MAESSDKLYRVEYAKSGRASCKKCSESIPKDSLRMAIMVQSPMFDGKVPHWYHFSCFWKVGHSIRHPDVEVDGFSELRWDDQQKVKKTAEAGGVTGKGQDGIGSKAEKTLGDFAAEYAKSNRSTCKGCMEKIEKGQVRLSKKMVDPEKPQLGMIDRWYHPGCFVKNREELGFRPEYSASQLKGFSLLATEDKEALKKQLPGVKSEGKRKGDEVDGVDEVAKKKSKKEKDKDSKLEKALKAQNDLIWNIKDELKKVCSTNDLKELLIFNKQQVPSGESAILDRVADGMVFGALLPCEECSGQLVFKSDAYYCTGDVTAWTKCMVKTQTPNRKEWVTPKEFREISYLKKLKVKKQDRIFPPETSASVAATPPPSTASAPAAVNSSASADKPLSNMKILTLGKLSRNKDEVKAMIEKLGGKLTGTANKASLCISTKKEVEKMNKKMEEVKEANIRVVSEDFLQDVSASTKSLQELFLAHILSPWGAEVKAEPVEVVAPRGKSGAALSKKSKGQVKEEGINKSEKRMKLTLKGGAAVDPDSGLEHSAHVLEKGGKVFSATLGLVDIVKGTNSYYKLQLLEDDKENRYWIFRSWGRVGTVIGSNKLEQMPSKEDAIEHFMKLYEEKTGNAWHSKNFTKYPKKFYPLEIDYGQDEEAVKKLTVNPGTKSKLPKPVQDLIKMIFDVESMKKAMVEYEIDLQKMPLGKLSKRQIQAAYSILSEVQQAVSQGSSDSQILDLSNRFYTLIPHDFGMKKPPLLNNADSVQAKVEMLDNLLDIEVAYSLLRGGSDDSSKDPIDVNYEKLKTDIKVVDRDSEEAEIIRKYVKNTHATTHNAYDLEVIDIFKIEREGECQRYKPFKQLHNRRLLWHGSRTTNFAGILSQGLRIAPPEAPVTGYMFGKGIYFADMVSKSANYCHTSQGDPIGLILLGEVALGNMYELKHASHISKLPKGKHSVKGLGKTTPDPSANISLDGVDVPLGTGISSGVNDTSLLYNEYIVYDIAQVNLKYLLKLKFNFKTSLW
T1 sequence (Q9UGN5 whole entry, the tested form may be a part): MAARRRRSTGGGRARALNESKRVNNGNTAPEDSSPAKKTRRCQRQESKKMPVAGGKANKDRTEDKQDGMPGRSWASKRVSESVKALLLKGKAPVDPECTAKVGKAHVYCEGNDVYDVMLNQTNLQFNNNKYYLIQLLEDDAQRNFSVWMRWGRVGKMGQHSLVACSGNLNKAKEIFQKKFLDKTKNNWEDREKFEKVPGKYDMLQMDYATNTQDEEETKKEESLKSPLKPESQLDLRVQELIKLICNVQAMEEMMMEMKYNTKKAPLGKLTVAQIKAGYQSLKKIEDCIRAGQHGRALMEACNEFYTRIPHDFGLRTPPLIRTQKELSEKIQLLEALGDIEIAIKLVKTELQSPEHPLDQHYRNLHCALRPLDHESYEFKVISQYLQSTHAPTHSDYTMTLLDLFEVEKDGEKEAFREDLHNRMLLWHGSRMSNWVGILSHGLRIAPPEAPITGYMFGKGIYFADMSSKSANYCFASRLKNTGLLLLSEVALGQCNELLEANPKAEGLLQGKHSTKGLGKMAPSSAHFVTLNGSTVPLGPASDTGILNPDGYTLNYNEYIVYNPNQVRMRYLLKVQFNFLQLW

SMILES	pKd [1]	pKd ([2]; PARP1 HTRF)	Selectivity [2]	pIC50 [3]	pKd ([2]; read-out: PARP1 HTRF)
CNC(=O)c1ccc(N2CCC(N3CCC(c4nc5[nH]nc(C(F)(F)F)c5c(=O)[nH]4)C3)CC2)cn1 (single isomer, unassigned) [Compound 162b, N-methyl-5-(4-(3-(4-oxo-3-(trifluoromethyl)-4,5-dihydro-1H-pyrazolo[3,4-d]pyrimidin-6-yl)pyrrolidin-1-yl)piperidin-1-yl)picolinamide]	7.00 to 8.00	> 8.00	++ (++ indicates a value of 50 to less than 100)	> 8.00	
CCc1ccc(C2CCN(C3CCN(c4ccc(C(=O)NC)nc4C(F)F)CC3)C2)[nH]c1=O (single isomer, unassigned) [Compound 164a]	5.00 to 6.00		+++ (+++ indicate a value of at least 100)	> 8.00	> 8.00
CCc1ccc(C2CCN(C3CCN(c4ccc(C(=O)NC)nc4C(F)F)CC3)C2)[nH]c1=O (single isomer, unassigned) [Compound 164b]	< 5.00		+++ (+++ indicate a value of at least 100)	7.00 to 8.00	7.00 to 8.00
CCc1ccc(C2CCN(C3CCN(c4ccc(C(=O)NCCF)nc4)CC3)C2)[nH]c1=O (single isomer, unassigned) [Compound 165a]	6.00 to 7.00		+++ (+++ indicate a value of at least 100)	> 8.00	> 8.00
CCc1ccc(C2CCN(C3CCN(c4ccc(C(=O)NCCF)nc4)CC3)C2)[nH]c1=O (single isomer, unassigned) [Compound 165b]	5.00 to 6.00		+++ (+++ indicate a value of at least 100)	7.00 to 8.00	7.00 to 8.00
CNC(=O)c1ccc(N2CCC(N3CCC(c4cc5c(C(F)(F)F)cccc5c(=O)[nH]4)C3)CC2)cn1 (single isomer, unassigned) [Compound 167a]	< 5.00		++ (++ indicates a value of 50 to less than 100)	7.00 to 8.00	7.00 to 8.00
CNC(=O)c1ccc(N2CCC(N3CCC(c4cc5c(C(F)(F)F)cccc5c(=O)[nH]4)C3)CC2)cn1 (single isomer, unassigned) [Compound 167b]	6.00 to 7.00		+++ (+++ indicate a value of at least 100)	> 8.00	> 8.00
CNC(=O)c1ccc(N2CCC(N3CCCC(c4ccc(CC(F)(F)F)c(=O)[nH]4)C3)CC2)cn1 (single isomer, unassigned) [Compound 169a]	< 5.00		− (− indicates a value of less than 10)	5.00 to 6.00	< 5.00
CNC(=O)c1ccc(N2CCC(N3CCCC(c4ccc(CC(F)(F)F)c(=O)[nH]4)C3)CC2)cn1 (single isomer, unassigned) [Compound 169b]	< 5.00		+++ (+++ indicate a value of at least 100)	> 8.00	7.00 to 8.00
CNC(=O)c1ccc(N2CCC(N3CCC(c4nc5c(c(C(F)(F)F)cn5C)c(=O)[nH]4)C3)CC2)cn1 (single isomer, unassigned) [Compound 170a]	> 8.00		− (− indicates a value of less than 10)	> 8.00	> 8.00
CNC(=O)c1ccc(N2CCC(N3CCC(c4nc5c(c(C(F)(F)F)cn5C)c(=O)[nH]4)C3)CC2)cn1 (single isomer, unassigned) [Compound 170b]	> 8.00		− (− indicates a value of less than 10)	> 8.00	> 8.00
CNC(=O)c1ccc(N2CCC(N3CCC(c4cc5c(F)cccc5c(=O)[nH]4)C3)CC2)cn1 (single isomer, unassigned) [Compound 172a]	5.00 to 6.00		+++ (+++ indicate a value of at least 100)	> 8.00	> 8.00
CNC(=O)c1ccc(N2CCC(N3CCC(c4cc5c(F)cccc5c(=O)[nH]4)C3)CC2)cn1 (single isomer, unassigned) [Compound 172b]	7.00 to 8.00		+++ (+++ indicate a value of at least 100)	> 8.00	> 8.00
CNC(=O)c1ccc(N2CCC(N3CCC(c4nc5onc(C(F)(F)F)c5c(=O)[nH]4)C3)CC2)cn1 (single isomer, unassigned) [Compound 176a]	< 5.00		+ (+ indicates a value of 10 to less than 50)	6.00 to 7.00	6.00 to 7.00
CNC(=O)c1ccc(N2CCC(N3CCC(c4nc5onc(C(F)(F)F)c5c(=O)[nH]4)C3)CC2)cn1 (single isomer, unassigned) [Compound 176b]	< 5.00		++ (++ indicates a value of 50 to less than 100)	7.00 to 8.00	6.00 to 7.00
CNC(=O)c1ccc(N2CCC(N3CCC(c4cc5c(F)ccc(F)c5c(=O)[nH]4)C3)CC2)cn1 (single isomer, unassigned) [Compound 180a]	5.00 to 6.00		+++ (+++ indicate a value of at least 100)	> 8.00	> 8.00

SMILES	pKd [1]	pKd ([2]; PARP1 HTRF)	Selectivity [2]	pIC50 [3]	pKd ([2]; read-out: PARP1 HTRF)
CNC(=O)c1ccc(N2CCC(N3CCC(c4nc5c(F)cc(F)cc5c(=O)[nH]4)C3)CC2)cn1 (single isomer, unassigned) [Compound 181a]	6.00 to 7.00		+ (+ indicates a value of 10 to less than 50)	7.00 to 8.00	7.00 to 8.00
CNC(=O)c1ccc(N2CCC(N3CCC(c4nc5c(F)cc(F)cc5c(=O)[nH]4)C3)CC2)cn1 (single isomer, unassigned) [Compound 181b]	6.00 to 7.00		+++ (+++ indicate a value of at least 100)	> 8.00	> 8.00
CNC(=O)c1ccc(N2CCC(N3CCC(c4nc5c(F)ccc(F)c5c(=O)[nH]4)C3)CC2)cn1 (single isomer, unassigned) [Compound 182a]	6.00 to 7.00		+ (+ indicates a value of 10 to less than 50)	7.00 to 8.00	7.00 to 8.00
CNC(=O)c1ccc(N2CCC(N3CCC(c4nc5c(F)ccc(F)c5c(=O)[nH]4)C3)CC2)cn1 (single isomer, unassigned) [Compound 182b]	6.00 to 7.00		+++ (+++ indicate a value of at least 100)	> 8.00	> 8.00
CNC(=O)c1ccc(N2CCC(N3CCC(c4cc5cccc(F)c5c(=O)[nH]4)C3)CC2)c(Cl)n1 (single isomer, unassigned) [Compound 183a]	5.00 to 6.00		+++ (+++ indicate a value of at least 100)	> 8.00	> 8.00
CNC(=O)c1ccc(N2CCC(N3CCC(c4cc5cccc(F)c5c(=O)[nH]4)C3)CC2)c(F)n1 (single isomer, unassigned) [Compound 184a, 6-fluoro-5-[4-[3-(8-fluoro-1-oxo-2H-isoquinolin-3-yl)pyrrolidin-1-yl]piperidin-1-yl]-N-methylpyridine-2-carboxamide]	5.00 to 6.00	> 8.00	+++ (+++ indicate a value of at least 100)	> 8.00	
CNC(=O)c1ccc(N2CCC(N3CCCC(c4nc5sc6c(c5c(=O)[nH]4)CCC6)C3)CC2)cn1 (single isomer, unassigned) [Compound 185a]	6.00 to 7.00		+++ (+++ indicate a value of at least 100)	> 8.00	> 8.00
CNC(=O)c1ccc(N2CCC(N3CCCC(c4nc5sc6c(c5c(=O)[nH]4)CCC6)C3)CC2)cn1 (single isomer, unassigned) [Compound 185b]	5.00 to 6.00		+ (+ indicates a value of 10 to less than 50)	7.00 to 8.00	6.00 to 7.00
CNC(=O)c1ccc(N2CCC(N3CCC(c4cc5c(F)cc(F)cc5c(=O)[nH]4)C3)CC2)cn1 (single isomer, unassigned) [Compound 186a]	6.00 to 7.00		+++ (+++ indicate a value of at least 100)	> 8.00	> 8.00
CNC(=O)c1ccc(N2CCC(N3CCC(c4nc5c(c(C(F)(F)F)nn5C)c(=O)[nH]4)C3)CC2)cn1 (single isomer, unassigned) [Compound 187a]	6.00 to 7.00		− (− indicates a value of less than 10)	7.00 to 8.00	7.00 to 8.00
CNC(=O)c1ccc(N2CCC(N3CCC(c4nc5c(c(C(F)(F)F)nn5C)c(=O)[nH]4)C3)CC2)cn1 (single isomer, unassigned) [Compound 187b]	> 8.00		− (− indicates a value of less than 10)	> 8.00	> 8.00
CNC(=O)c1ccc(N2CCC(N3CCC(c4ccc(CC(F)(F)F)c(=O)[nH]4)C3)CC2)cn1 (single isomer, unassigned) [Compound 188a]	< 5.00		+ (+ indicates a value of 10 to less than 50)	6.00 to 7.00	6.00 to 7.00
CNC(=O)c1ccc(N2CCC(N3CCC(c4ccc(CC(F)(F)F)c(=O)[nH]4)C3)CC2)cn1 (single isomer, unassigned) [Compound 188b]	6.00 to 7.00		+++ (+++ indicate a value of at least 100)	> 8.00	> 8.00
CNC(=O)c1ccc(N2CCC(N3CCC(c4nc5sc6c(c5c(=O)[nH]4)CCC6)C3)CC2)cn1 (single isomer, unassigned) [Compound 189a]	6.00 to 7.00		− (− indicates a value of less than 10)	7.00 to 8.00	7.00 to 8.00
CNC(=O)c1ccc(N2CCC(N3CCC(c4nc5sc6c(c5c(=O)[nH]4)CCC6)C3)CC2)cn1 (single isomer, unassigned) [Compound 189b]	7.00 to 8.00		++ (++ indicates a value of 50 to less than 100)	> 8.00	> 8.00
